Experiments:
[1] = system: wild buckwheat; test: Test C preemergence/postemergence greenhouse plant response rating 0 to 100; format: in vivo, Polygonum convolvulus; settings: POSTEMERGENCE; for Plant response rating, Wild buckwheat: 0 to 100 scale
Summary of the method: (§1)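 Compounds in non-phytotoxic solvent applied preemergence to sandy loam one day after planting, postemergence at the 1–4 leaf stage, or to ~2.5 cm floodwater over silt loam.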

[2] = system: lambsquarters; test: as above; format: in vivo, Chenopodium album; settings: POSTEMERGENCE; for Plant response rating Lambsquarters: 0 to 100 scale
Summary of the method: as §1

[3] = system: cheatgrass; test: Test B preemergence/postemergence greenhouse plant response rating 0 to 10; format: in vivo, Bromus secalinus; settings: 0 to 10 scale
Summary of the method: (§2)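 Planted seeds are treated preemergence with compound dissolved in a non-phytotoxic solvent, while postemergence applications go onto plants of two to eighteen cm. Plants stay in the greenhouse twelve to sixteen days and are then rated visually relative to controls.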

[4] = system: chickweed; test: Test C preemergence/postemergence greenhouse plant response rating 0 to 100; format: in vivo, Stellaria media; settings: POSTEMERGENCE; for Plant response rating, Chickweed: 0 to 100 scale
Summary of the method: as §1

[5] = system: ryegrass; test: as above; format: in vivo, Lolium multiflorum; settings: POSTEMERGENCE; for Plant response rating Ryegrass: 0 to 100 scale
Summary of the method: as §1

[6] = system: downy brome; test: as above; format: in vivo, Bromus tectorum; settings: POSTEMERGENCE; for Plant response rating Downy Brome: 0 to 100 scale
Summary of the method: as §1

[7] = system: duck salad; test: Test C flood test plant response rating 0 to 100; format: in vivo, Heteranthera limosa; settings: for Plant response rating Duck salad: flood test species listed under POSTEMERGENCE, 0 to 100 scale
Summary of the method: as §1

[8] = system: soybean; test: Test C preemergence/postemergence greenhouse plant response rating 0 to 100; format: in vivo, Glycine max; settings: POSTEMERGENCE; for Plant response rating, Soybean: 0 to 100 scale
Summary of the method: as §1

[9] = system: barley; test: as above; format: in vivo, Hordeum vulgare; settings: POSTEMERGENCE; for Plant response rating Barley Igri: 0 to 100 scale
Summary of the method: as §1

[10] = system: chickweed; test: Test B preemergence/postemergence greenhouse plant response rating 0 to 10; format: in vivo, Stellaria media; settings: 0 to 10 scale
Summary of the method: as §2

[11] = system: velvetleaf; test: Test C preemergence/postemergence greenhouse plant response rating 0 to 100; format: in vivo, Abutilon theophrasti; settings: POSTEMERGENCE; for Plant response rating, Velvetleaf: 0 to 100 scale
Summary of the method: as §1

[12] = system: cotton; test: as above; format: in vivo, Gossypium hirsutum; settings: POSTEMERGENCE; for Plant response rating, Cotton: 0 to 100 scale
Summary of the method: as §1

[13] = system: giant foxtail; test: Test B preemergence/postemergence greenhouse plant response rating 0 to 10; format: in vivo, Setaria faberii; settings: 0 to 10 scale
Summary of the method: as §2

[14] = system: wild oat; test: as above; format: in vivo, Avena fatua; settings: 0 to 10 scale
Summary of the method: as §2

[15] = system: corn; test: as above; format: in vivo, Zea mays; settings: 0 to 10 scale
Summary of the method: as §2

[16] = system: sorghum; test: as above; format: in vivo, Sorghum bicolor; settings: 0 to 10 scale
Summary of the method: as §2

[17] = system: sugar beet; test: Test C preemergence/postemergence greenhouse plant response rating 0 to 100; format: in vivo, Beta vulgaris; settings: POSTEMERGENCE; for Plant response rating, Sugar beet: 0 to 100 scale
Summary of the method: as §1

[18] = system: wild buckwheat; test: Test B preemergence/postemergence greenhouse plant response rating 0 to 10; format: in vivo, Polygonum convolvulus; settings: 0 to 10 scale
Summary of the method: as §2

For C#CC(C)N1C(=O)COc2cc(F)c(-c3nn4c(c3Cl)CCCC4)cc21 (centres unmarked) [Compound 50], the “Plant response rating, Wild buckwheat” value ([1]; 62 g/ha) was 100, the “Plant response rating, Wild buckwheat” value ([1]; 250 g/ha) was 100 and the “Plant response rating (0 to 100), Wild buckwheat” value ([1]; Rate 1 g/ha) was 0. The “Plant response rating (0 to 100), Wild buckwheat” value ([1]; Rate 4 g/ha) was 20, the “Plant response rating (0 to 100), Wild buckwheat” value ([1]; Rate 16 g/ha) was 80 and the “Plant response rating Lambsquarters” value ([2]; 62 g/ha) was 100. The “Plant response rating Lambsquarters” value ([2]; 250 g/ha) was 100, the “Plant response rating (0 to 100), Lambsquarters” value ([2]; Rate 4 g/ha) was 100 and the “Plant response rating (0 to 100), Lambsquarters” value ([2]; Rate 16 g/ha) was 100. For the same molecule, the “Plant response rating, Cheatgrass” value ([3]; POSTEMERGENCE, Rate 10 g/ha) was 5, the “Plant response rating, Cheatgrass” value ([3]; POSTEMERGENCE, Rate 50 g/ha) was 6 and the “Plant response rating, Cheatgrass” value ([3]; PREEMERGENCE, Rate 10 g/ha) was 2. The “Plant response rating, Cheatgrass” value ([3]; PREEMERGENCE, Rate 50 g/ha) was 3, the “Plant response rating, Chickweed” value ([4]; 62 g/ha) was 100 and the “Plant response rating, Chickweed” value ([4]; 250 g/ha) was 100. For the same molecule, the “Plant response rating (0 to 100), Chickweed” value ([4]; Rate 1 g/ha) was 20, the “Plant response rating (0 to 100), Chickweed” value ([4]; Rate 4 g/ha) was 30 and the “Plant response rating (0 to 100), Chickweed” value ([4]; Rate 16 g/ha) was 80. For the same molecule, the “Plant response rating Ryegrass” value ([5]; 62 g/ha) was 40, the “Plant response rating Ryegrass” value ([5]; 250 g/ha) was 50 and the “Plant response rating (0 to 100), Ryegrass” value ([5]; Rate 1 g/ha) was 0. For the same molecule, the “Plant response rating (0 to 100), Ryegrass” value ([5]; Rate 4 g/ha) was 20, the “Plant response rating (0 to 100), Ryegrass” value ([5]; Rate 16 g/ha) was 30 and the “Plant response rating Downy Brome” value ([6]; 62 g/ha) was 50. For the same molecule, the “Plant response rating Downy Brome” value ([6]; 250 g/ha) was 60, the “Plant response rating (0 to 100), Downy Brome” value ([6]; Rate 1 g/ha) was 0 and the “Plant response rating (0 to 100), Downy Brome” value ([6]; Rate 4 g/ha) was 30. The “Plant response rating (0 to 100), Downy Brome” value ([6]; Rate 16 g/ha) was 40, the “Plant response rating (0 to 100), Duck salad” value ([7]; POSTEMERGENCE section, flood test, Rate 4 g/ha) was 0 and the “Plant response rating (0 to 100), Duck salad” value ([7]; Rate 16 g/ha, under POSTEMERGENCE head (flood test species)) was 0. The “Plant response rating Duck salad” value ([7]; 62 g/ha) was 0, the “Plant response rating Duck salad” value ([7]; 250 g/ha) was 90 and the “Plant response rating, Soybean” value ([8]; 62 g/ha) was 90. For the same molecule, the “Plant response rating, Soybean” value ([8]; 250 g/ha) was 90, the “Plant response rating (0 to 100), Soybean” value ([8]; Rate 1 g/ha) was 40 and the “Plant response rating (0 to 100), Soybean” value ([8]; Rate 4 g/ha) was 60. For the same molecule, the “Plant response rating (0 to 100), Soybean” value ([8]; Rate 16 g/ha) was 70, the “Plant response rating Barley Igri” value ([9]; 62 g/ha) was 40 and the “Plant response rating Barley Igri” value ([9]; 250 g/ha) was 50. The “Plant response rating (0 to 100), Barley Igri” value ([9]; Rate 1 g/ha) was 0, the “Plant response rating (0 to 100), Barley Igri” value ([9]; Rate 4 g/ha) was 20 and the “Plant response rating (0 to 100), Barley Igri” value ([9]; Rate 16 g/ha) was 30. The “Plant response rating, Chickweed” value ([10]; POSTEMERGENCE, Rate 10 g/ha) was 9, the “Plant response rating, Chickweed” value ([10]; POSTEMERGENCE, Rate 50 g/ha) was 10 and the “Plant response rating, Chickweed” value ([10]; PREEMERGENCE, Rate 10 g/ha) was 0. For the same molecule, the “Plant response rating, Chickweed” value ([10]; PREEMERGENCE, Rate 50 g/ha) was 10, the “Plant response rating, Velvetleaf” value ([11]; 62 g/ha) was 100 and the “Plant response rating, Velvetleaf” value ([11]; 250 g/ha) was 100. The “Plant response rating (0 to 100), Velvetleaf” value ([11]; Rate 1 g/ha) was 70, the “Plant response rating (0 to 100), Velvetleaf” value ([11]; Rate 4 g/ha) was 90 and the “Plant response rating (0 to 100), Velvetleaf” value ([11]; Rate 16 g/ha) was 100. The “Plant response rating, Cotton” value ([12]; 62 g/ha) was 100, the “Plant response rating, Cotton” value ([12]; 250 g/ha) was 100 and the “Plant response rating (0 to 100), Cotton” value ([12]; Rate 1 g/ha) was 70. For the same molecule, the “Plant response rating (0 to 100), Cotton” value ([12]; Rate 4 g/ha) was 100, the “Plant response rating (0 to 100), Cotton” value ([12]; Rate 16 g/ha) was 100 and the “Plant response rating, Giant foxtail” value ([13]; POSTEMERGENCE, Rate 10 g/ha) was 4. For the same molecule, the “Plant response rating, Giant foxtail” value ([13]; POSTEMERGENCE, Rate 50 g/ha) was 4, the “Plant response rating, Giant foxtail” value ([13]; PREEMERGENCE, Rate 10 g/ha) was 0 and the “Plant response rating, Giant foxtail” value ([13]; PREEMERGENCE, Rate 50 g/ha) was 3. The “Plant response rating, Wild oat” value ([14]; POSTEMERGENCE, Rate 10 g/ha) was 3, the “Plant response rating, Wild oat” value ([14]; POSTEMERGENCE, Rate 50 g/ha) was 4 and the “Plant response rating, Wild oat” value ([14]; PREEMERGENCE, Rate 50 g/ha) was 3. For the same molecule, the “Plant response rating, Corn” value ([15]; POSTEMERGENCE, Rate 10 g/ha) was 3, the “Plant response rating, Corn” value ([15]; POSTEMERGENCE, Rate 50 g/ha) was 4 and the “Plant response rating, Corn” value ([15]; PREEMERGENCE, Rate 50 g/ha) was 0. The “Plant response rating, Sorghum” value ([16]; POSTEMERGENCE, Rate 10 g/ha) was 4, the “Plant response rating, Sorghum” value ([16]; POSTEMERGENCE, Rate 50 g/ha) was 3 and the “Plant response rating, Sorghum” value ([16]; PREEMERGENCE, Rate 50 g/ha) was 0. The “Plant response rating, Sugar beet” value ([17]; 62 g/ha) was 100, the “Plant response rating, Sugar beet” value ([17]; 250 g/ha) was 100 and the “Plant response rating (0 to 100), Sugar beet” value ([17]; Rate 1 g/ha) was 20. The “Plant response rating (0 to 100), Sugar beet” value ([17]; Rate 4 g/ha) was 100, the “Plant response rating (0 to 100), Sugar beet” value ([17]; Rate 16 g/ha) was 100 and the “Plant response rating, Wild buckwheat” value ([18]; POSTEMERGENCE, Rate 10 g/ha) was 10. For the same molecule, the “Plant response rating, Wild buckwheat” value ([18]; POSTEMERGENCE, Rate 50 g/ha) was 10 and the “Plant response rating, Wild buckwheat” value ([18]; PREEMERGENCE, Rate 50 g/ha) was 7.

Reference: patent US6358885B1, “Substituted phenylheterocyclic herbicides” (Mississippi State University, priority 1992, dated 2002)
